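Interpolation was linear, between the two tested concentrations surrounding the appropriate level; five concentrations were tested over 48 hours in 96-well plates. Abbreviation: GI50, concentration required for 50% inhibition of growth.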 Calls of active or inactive are those of the source. No stated cut-off is given here; in the data, active = GI50 up to about 1.1 µM and inactive = higher.
Legend:
Test in all cases: growth of human tumour cells (NCI), 48 h
SNB-78 = system: SNB-78
RXF 631 = system: RXF 631
HOP-18 = system: HOP-18
LXFL 529 = system: LXFL 529
DLD-1 = system: DLD-1
DMS-114 = system: DMS-114
KM-20L2 = system: KM-20L2
XF498 = system: XF498
M19-MEL = system: M19-MEL

Structure (SMILES)	GI50 (SNB-78)	GI50 (RXF 631)	GI50 (HOP-18)	GI50 (LXFL 529)	GI50 (DLD-1)	GI50 (DMS-114)	GI50 (KM-20L2)	GI50 (XF498)	GI50 (M19-MEL)
COC(=O)C(=O)C(C(=O)C=C(C)C)C(=O)C(=O)Nc1cc(C(F)(F)F)ccc1Cl (centres undefined)	> 100 µM (inactive)	> 100 µM (inactive)	> 100 µM (inactive)	> 100 µM (inactive)	> 100 µM (inactive)	> 100 µM (inactive)	> 100 µM (inactive)	> 100 µM (inactive)	
COc1c(C)cc(O)cc1C=O	> 100 µM (inactive)	> 100 µM (inactive)		> 100 µM (inactive)	> 100 µM (inactive)	> 100 µM (inactive)			> 100 µM (inactive)
O=C(c1ccccc1)N1CCN2CCN=C(c3ccccc3)C21c1ccccc1 (centres undefined)	> 100 µM (inactive)		> 100 µM (inactive)	97.9 µM (inactive)	91 µM (inactive)	30.5 µM (inactive)	70.6 µM (inactive)		81.7 µM (inactive)
COc1ccc2nc3cc(Cl)ccc3c(NCCCN(CCCl)CCCl)c2c1	0.0845 µM (active)	0.0118 µM (active)	2.64 µM (inactive)	0.0166 µM (active)	0.233 µM (active)	< 0.01 µM (active)	0.0339 µM (active)	< 0.01 µM (active)	0.0443 µM (active)
Cc1cc(N(CCC#N)CCC#N)ccc1/N=N/c1ccc(Br)cc1	17.7 µM (inactive)	11.1 µM (inactive)	> 35 µM (inactive)	> 48.8 µM (inactive)	> 42.7 µM (inactive)	20.2 µM (inactive)	3.61 µM (inactive)	2.22 µM (inactive)	> 53.3 µM (inactive)
C=CC1C(OC2OC(CO)C(O)C(O)C2O)OC=C(C(=O)OC)C1CC=O (centres undefined)	> 100 µM (inactive)	> 100 µM (inactive)	> 100 µM (inactive)	> 100 µM (inactive)	> 100 µM (inactive)		> 100 µM (inactive)		> 100 µM (inactive)
COC1=C2C[C@H](O)C(C)C[C@@]2(OC)OC1=O (some centres undefined)	> 100 µM (inactive)	> 100 µM (inactive)		> 100 µM (inactive)	> 100 µM (inactive)			> 100 µM (inactive)	> 100 µM (inactive)
O=C1c2c(O)cccc2C(C(=O)CCCCCC(=O)C2c3cccc(O)c3C(=O)c3c(O)cccc32)c2cccc(O)c21	0.681 µM (active)	1.26 µM (inactive)	1.16 µM (inactive)	0.697 µM (active)	1.12 µM (inactive)	0.512 µM (active)	5.51 µM (inactive)	0.46 µM (active)	0.857 µM (active)
COc1cc(/C=C\c2ccc(C)cc2)cc(OC)c1OC	0.0001 µM (active)			0.0004 µM (active)	0.00237 µM (active)	0.000266 µM (active)	0.000117 µM (active)	0.00033 µM (active)	0.00197 µM (active)
CC(=O)NC1=C(NCCN(C)C)C(=O)c2ccccc2C1=O	18.9 µM (inactive)			15 µM (inactive)	14.3 µM (inactive)		16.4 µM (inactive)	13.7 µM (inactive)	7.6 µM (inactive)
CN(C)c1ccc(/C=C2\CCc3ccccc3C2=O)cc1Br	39.4 µM (inactive)		> 100 µM (inactive)	48.3 µM (inactive)	55.5 µM (inactive)		21.6 µM (inactive)	94.6 µM (inactive)	49.4 µM (inactive)
COc1cc([C@H]2c3cc4c(cc3[C@H](NCc3ccc(F)cc3)C3COC(=O)[C@H]32)OCO4)cc(OC)c1O (some centres undefined)	24.7 µM (inactive)	2.32 µM (inactive)	26.3 µM (inactive)	16.3 µM (inactive)	7.03 µM (inactive)	3.37 µM (inactive)	3.56 µM (inactive)	2.37 µM (inactive)	7.59 µM (inactive)
COc1ccc(C2S/C(=C\c3cccc(OC)c3)C(=O)N2NC(=O)Cc2ccccc2)cc1 (centres undefined)			> 100 µM (inactive)	> 100 µM (inactive)	> 100 µM (inactive)				> 100 µM (inactive)
O=[N+]([O-])c1cccc(C2=NOC(C3CCCCC3)C2)c1 (centres undefined)	> 100 µM (inactive)	> 100 µM (inactive)	> 100 µM (inactive)	> 100 µM (inactive)	> 100 µM (inactive)	> 100 µM (inactive)			> 100 µM (inactive)
CC1=CCC(O)C=CC(C)C(O)C(C)C=C(C)C(=O)c2c(O)c(C)cc3c2C(=O)C(N)=C(NC(=O)/C=C\C=C/C=CC(C)C(O)CC1=O)C3=O (centres undefined)	17.3 µM (inactive)			27.8 µM (inactive)	> 100 µM (inactive)	> 100 µM (inactive)	> 100 µM (inactive)	> 100 µM (inactive)	> 100 µM (inactive)
Cc1cnc2c(C)ccc([N+](=O)[O-])c2c1NCCCN(C)C	43.7 µM (inactive)					> 100 µM (inactive)	> 100 µM (inactive)		> 100 µM (inactive)
O=C1C=C[C@@]23CC1C(O)C[C@H]2C=Cc1ccccc13 (some centres undefined)				> 100 µM (inactive)	45.6 µM (inactive)	> 100 µM (inactive)	> 100 µM (inactive)	> 100 µM (inactive)	> 100 µM (inactive)
CC(=O)c1ccc(NC(=O)C(=O)C(C(=O)c2ccc(Cl)c(Cl)c2)C2OC(=O)c3ccccc32)cc1 (centres undefined)	12.9 µM (inactive)		12.3 µM (inactive)	11 µM (inactive)	23.8 µM (inactive)	13.4 µM (inactive)	34.4 µM (inactive)	22.5 µM (inactive)	
COc1ccc(-c2cnoc2-c2ccc(OC)c(OC)c2)cc1OC	7.62 µM (inactive)		6.14 µM (inactive)	1.83 µM (inactive)	2.12 µM (inactive)	0.441 µM (active)	4.66 µM (inactive)	1.75 µM (inactive)	0.891 µM (active)
Cc1nc2c(o1)/C(=N\c1ccccc1)c1ccccc1C2=O	6.81 µM (inactive)		5.42 µM (inactive)	11.9 µM (inactive)	12.9 µM (inactive)	3.3 µM (inactive)	17.4 µM (inactive)	4.02 µM (inactive)	1.86 µM (inactive)
CC(=O)c1cccc(NC(=O)C(=O)Nn2c(N)nnc2N)c1	> 100 µM (inactive)		> 100 µM (inactive)	> 100 µM (inactive)	> 100 µM (inactive)	> 100 µM (inactive)	> 100 µM (inactive)	> 100 µM (inactive)	> 100 µM (inactive)
